From patent US20250368650A1, “5-(4-FLUOROPHENYL)-2,3-DIHYDRO-1H-IMIDAZO[1,2-A]IMIDAZOLE DERIVATIVES AS ALK INHIBITORS FOR THE TREATMENT OF FIBROSIS” (CHIESI FARMACEUTICI S.P.A., priority 2022, published 2025)
Where a name gives a salt, the structure may show the parent alone.

target: human ALK5 (Homo sapiens (Human), UniProt P36897); assay: ADP-GLO Kinases assay, ALK5 enzymatic activity; format: biochemical; conditions: purified recombinant human ALK5 2.6 nM, TGFβ1 peptide 94.5 μM, ATP 0.83 μM, 120 min, 25° C.; pIC50 converted to pKi using the Cheng-Prusoff equation
Sequence (P36897 80-503 limits assumed): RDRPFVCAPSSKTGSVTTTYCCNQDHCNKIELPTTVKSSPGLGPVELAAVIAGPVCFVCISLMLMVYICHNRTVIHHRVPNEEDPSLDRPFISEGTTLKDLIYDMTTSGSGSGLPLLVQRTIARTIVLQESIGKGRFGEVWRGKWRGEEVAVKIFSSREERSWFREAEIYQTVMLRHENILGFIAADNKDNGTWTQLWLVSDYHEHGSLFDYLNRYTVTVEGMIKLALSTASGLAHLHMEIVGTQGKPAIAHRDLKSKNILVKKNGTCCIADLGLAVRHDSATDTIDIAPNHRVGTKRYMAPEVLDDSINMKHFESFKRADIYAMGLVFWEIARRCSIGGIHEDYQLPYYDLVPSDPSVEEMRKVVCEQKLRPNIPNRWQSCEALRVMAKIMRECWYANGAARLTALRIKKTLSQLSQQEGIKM
Protocol: The enzymatic activity of compounds of the present invention was monitored measuring the formation of ADP using the ADP-GLO Kinases assay. Following the incubation of the purified enzyme, a substrate and ATP, the produced ADP was converted into ATP, which in turn was converted into light by Ultra-Glo Luciferase. The luminescent signal positively correlated with ADP amount and kinase activity. Briefly, the kinase reaction was performed by incubating 2.6 nM of the purified, commercially available human ALK5 (recombinant TGF β1 N-term GST-tagged, 80-end), a final concentration of TGFβ1 peptide 94.5 μM (Promega, T36-58) and ultra-pure ATP (Promega V915B). The ATP concentration was set at the Km value (concentration of substrate which permits the enzyme to achieve half maximal velocity (Vmax)) of ALK5 (0.5 μM). Compound and ALK5 kinase were mixed and incubated for 15 min. Reactions were initiated by addition of ATP at a final concentration in the assay of 0.83 μM. After an incubation of 120 min, the reaction was stopped, and ADP production detected with ADP-Glo kit according to manufacturer's indications. All reaction and incubation steps were performed at 25° C. and the assays were performed in 384-well format and validated using a selection of reference compounds tested in 11-point concentration-response curve.
Results were expressed as pIC50 (negative logarithm of IC50) and subsequently converted to pKi (negative logarithm of […]) using the Cheng-Prusoff equation. The higher the value of pKi, the greater the inhibition of ALK5 activity.

Ki | ALK5 pKi | SMILES
1.26 to 7.94 nM |  | CN1CCN(CCC(=O)Nc2cc(-c3c(-c4cc(Cl)ccc4F)nc4n3CCN4)ccc2F)CC1 [Example 8, N-(5-(6-(5-chloro-2-fluorophenyl)-2,3-dihydro-1H-imidazo[1,2-a]imidazol-5-yl)-2-fluorophenyl)-3-(4-methylpiperazin-1-yl)propanamide]
1.26 to 7.94 nM |  | Cc1cccc(-c2nc3n(c2-c2ccc(F)c(NC(=O)CCC[N+]4(C)CCCCC4)c2)CCN3)n1 [Example 12, 1-(4-((2-Fluoro-5-(6-(6-methylpyridin-2-yl)-2,3-dihydro-1H-imidazo[1,2-a]imidazol-5-yl)phenyl)amino)-4-oxobutyl)-1-methylpiperidin-1-ium chloride hydrochloride]
≤ 1 nM |  | Cc1cccc(-c2nc3n(c2-c2ccc(F)c(NC(=O)CCN(C)C)c2)CCN3)n1 [Example 9, 3-(Dimethylamino)-N-(2-fluoro-5-(6-(6-methylpyridin-2-yl)-2,3-dihydro-1H-imidazo[1,2-a]imidazol-5-yl)phenyl)propanamide]
1.26 to 7.94 nM |  | Cc1cccc(-c2nc3n(c2-c2ccc(F)c(NC(=O)CCN4CCN(CC(F)(F)F)CC4)c2)CCN3)n1 [Example 4, N-(2-fluoro-5-(6-(6-methylpyridin-2-yl)-2,3-dihydro-1H-imidazo[1,2-a]imidazol-5-yl)phenyl)-3-(4-(2,2,2-trifluoroethyl)piperazin-1-yl)propanamide]
≤ 1 nM |  | O=C(CCN1CCCCC1)Nc1cc(-c2c(-c3cc(Cl)ccc3F)nc3n2CCN3)ccc1F [Example 10, N-(5-(6-(5-chloro-2-fluorophenyl)-2,3-dihydro-1H-imidazo[1,2-a]imidazol-5-yl)-2-fluorophenyl)-3-(piperidin-1-yl)propanamide]
10 to 31.6 nM |  | Cc1cccc(-c2nc3n(c2-c2ccc(F)c(NC(=O)CN(C)C)c2)CCN3)n1 [Example 5, 2-(Dimethylamino)-N-(2-fluoro-5-(6-(6-methylpyridin-2-yl)-2,3-dihydro-1H-imidazo[1,2-a]imidazol-5-yl)phenyl)acetamide]
10 to 31.6 nM |  | Cc1cccc(-c2nc3n(c2-c2ccc(F)c(NC(=O)CN4CCN(C)CC4)c2)CCN3)n1 [Example 6, N-(2-fluoro-5-(6-(6-methylpyridin-2-yl)-2,3-dihydro-1H-imidazo[1,2-a]imidazol-5-yl)phenyl)-2-(4-methylpiperazin-1-yl)acetamide]
1.26 to 7.94 nM |  | Cc1cccc(-c2nc3n(c2-c2ccc(F)c(NC(=O)CCCN4CCN(C)CC4)c2)CCN3)n1 [Example 7, N-(2-fluoro-5-(6-(6-methylpyridin-2-yl)-2,3-dihydro-1H-imidazo[1,2-a]imidazol-5-yl)phenyl)-4-(4-methylpiperazin-1-yl)butanamide]
 | ≥9.0 | Cc1cccc(-c2nc3n(c2-c2ccc(F)c(NC(=O)CCN4CCCCC4)c2)CCN3)n1 [Example 2, N-(2-fluoro-5-(6-(6-methylpyridin-2-yl)-2,3-dihydro-1H-imidazo[1,2-a]imidazol-5-yl)phenyl)-3-(piperidin-1-yl)propanamide]
10 to 31.6 nM |  | Cc1cccc(-c2nc3n(c2-c2ccc(F)c(NC4CCN(C(C)C)CC4)c2)CCN3)n1 [Example 13, N-(2-fluoro-5-(6-(6-methylpyridin-2-yl)-2,3-dihydro-1H-imidazo[1,2-a]imidazol-5-yl)phenyl)-1-isopropylpiperidin-4-amine]
1.26 to 7.94 nM |  | Cc1cccc(-c2nc3n(c2-c2ccc(F)c(NC(=O)CCCN4CCCCC4)c2)CCN3)n1 [Example 11, N-(2-fluoro-5-(6-(6-methylpyridin-2-yl)-2,3-dihydro-1H-imidazo[1,2-a]imidazol-5-yl)phenyl)-4-(piperidin-1-yl)butanamide]
1.26 to 7.94 nM |  | Cc1cccc(-c2nc3n(c2-c2ccc(F)c(NCC4CCN(C)CC4)c2)CCN3)n1 [Example 14, 2-Fluoro-N-((1-methylpiperidin-4-yl)methyl)-5-(6-(6-methylpyridin-2-yl)-2,3-dihydro-1H-imidazo[1,2-a]imidazol-5-yl)aniline]
1.26 to 7.94 nM |  | Cc1cccc(-c2nc3n(c2-c2ccc(F)c(NC(=O)CCN4CCN(CCO)CC4)c2)CCN3)n1 [Example 3, N-(2-fluoro-5-(6-(6-methylpyridin-2-yl)-2,3-dihydro-1H-imidazo[1,2-a]imidazol-5-yl)phenyl)-3-(4-(2-hydroxyethyl)piperazin-1-yl)propanamide]
1.26 to 7.94 nM |  | Cc1cccc(-c2nc3n(c2-c2ccc(F)c(NC(=O)CCN4CCN(C)CC4)c2)CCN3)n1 [Example 1, N-(2-fluoro-5-(6-(6-methylpyridin-2-yl)-2,3-dihydro-1H-imidazo[1,2-a]imidazol-5-yl)phenyl)-3-(4-methylpiperazin-1-yl)propanamide]
